Experiments:
T. b. brucei ISMR1 = assay: In vitro drug susceptibility assay (resazurin), dyskinetoplastic ISMR1 strain; format: cell-based, Trypanosoma brucei brucei; conditions: isometamidium-resistant line
Experimental: (§1) Organisms and culture media: Only bloodstream trypomastigotes of T. b. brucei were used throughout this study. […] Parasites were cultured in vented flasks at 37 °C and 5 % CO2 atmosphere and they were passaged every 3 days. Bloodstream forms of T. congolense savannah‐type strain IL3000 were cultured in basal MEM medium, supplemented by 10 % fresh goat serum, 14 μL of β‐mercaptoethanol, 800 μL of 200 mM glutamine solution, and 10 mL of penicillin/streptomycin solution per liter of medium (pH 7.3).48 T. congolense were cultured in six‐well plates at 34 °C and 5 % CO2.
(§2) In brief, the assays were performed in 96‐well plates with 2×10^5 cells per well for T. b. brucei or 5×10^5 cells per well for T. congolense, in their respective culture media. First, 200 μL of test compounds’ solutions (400 μM, in T. brucei or T. congolense medium as appropriate) was added to the first well of each 12‐well row, from which doubling dilutions were conducted over one row per test compound. […] Fluorescence was detected using a FLUOstar Optima (BMG Labtech, Durham, NC, USA) at wavelength of 540 nm (excitation), 590 nm (emission). EC50 values were calculated by nonlinear regression using an equation for a sigmoidal dose–response curve with variable slope using Prism 5.0 (GraphPad Software Inc., San Diego, CA, USA).

T. congolense IL3000 WT = assay: In vitro drug susceptibility assay (resazurin), T. congolense; format: cell-based; conditions: Trypanosoma congolense, bloodstream forms, read-out: EC50 T. c. IL3000 WT
Experimental: as §1, §2

[1] = test system: T. b. brucei 427WT bloodstream trypomastigotes; assay: Transmission electron microscopy on T. b. brucei; format: cell-based, Trypanosoma brucei brucei; conditions: 1×EC50; 4 h exposure
Experimental: Transmission electron microscopy assay on T. b. brucei and HFF cells: TEM of bloodstream trypomastigotes (427WT) and of HFF was performed essentially as previously described.52 Briefly, cell cultures were adjusted to 2.5×10^6 cells mL^−1 and incubated in the presence or absence of test compounds at EC50. Cells were fixed overnight at 4 °C in 2.5 % glutaraldehyde and 4 % paraformaldehyde in 0.1 M phosphate buffer (pH 7.4). Samples were washed with 0.1 M phosphate buffer (pH 7.4), post‐fixed in 1 % osmium tetroxide for 1 h on ice, and washed with the phosphate buffer. Cells were next incubated in 0.5 % uranyl acetate solution for 30 min, washed with distilled water and dehydrated in increasing concentrations of acetone (30, 50, 70, 90 and 100 %).

[2] = test system: T. b. brucei aqp2/aqp3‐KO; assay: microbe, parasite or virus in culture; format: cell-based, Trypanosoma brucei brucei; conditions: for EC50: Trypanosoma brucei, read-out: EC50 T. b. b. aqp2/aq3‐KO; for RF, resistance factor relative to WT (aqp2/aqp3-KO): aqp2/aqp3-KO versus 427WT
Experimental: as §1, §2

[3] = Cytotoxicity assay on human foreskin fibroblast (HFF), resazurin; format: cell-based; conditions: human foreskin fibroblast (HFF) cells, tested up to 200 μM, read-out: HFF cytotoxic activity (EC50)
Experimental: Cytotoxicity assay on human foreskin fibroblast (HFF): Toxicity of test compounds to mammalian cells was carried out using the resazurin assay previously described31 with slight modifications as follows. HFF cells were grown in a culture medium containing 500 mL of Dulbecco's modified Eagle's medium (DMEM; Sigma), 50 mL newborn calf serum (NBCS; Gibco), 5 mL penicillin/streptomycin (Gibco), and 5 mL of L‐Glutamax ([…], Gibco), at 37 °C and 5 % CO2 in vented flasks and passaged at 80–85 % of confluence. For the cytotoxicity assay, cells were suspended at 3×10^5 cells mL^−1 and 100 μL aliquots were added to each well of a 96‐well plate. The plate was incubated at 37 °C and 5 % CO2 for 24 h to allow cell adhesion. Serial test compounds dilution was performed in a different 96‐well plate and 100 μL of each dilution was transferred to each well containing cells, resulting in exposure of cells to 200–0.2 μM of test compound. Phenylarsine oxide (Sigma–Aldrich) was used as positive control and drug‐free incubation as negative control. The plates were incubated at 37 °C and 5 % CO2 for an additional 30 h, at which point 10 μL of resazurin solution ([…] in PBS) was added, followed by a final incubation for 24 h. The plates were read and the data analyzed as described above for the trypanosome assay.

[4] = test system: T. b. brucei 427WT bloodstream trypomastigotes; assay: ATP assay on T. b. brucei (luciferin-luciferase); format: cell-based, Trypanosoma brucei brucei; conditions: approximately 0.5×EC50; after 4–6 h
Experimental: ATP assay on T. b. brucei and HFF cells: Changes in cellular ATP levels due to the exposure of trypanosomes to the test compounds (0.5×EC50) were monitored using the Molecular Probes ATP Determination Kit (A22066, Invitrogen Detection Technologies), based on the luciferin–luciferase bioluminescent enzymatic reaction. Bloodstream trypomastigote cultures of T. brucei s427WT were incubated with and without test compound, and, at each predetermined incubation time, 10^7 cells of each sample were transferred into a microfuge tube and centrifuged at 2000×g for 10 min at 4 °C. The pellet was washed twice with 1 mL of 50 mM Tris⋅HCl (pH 7.4) containing 0.1 mM DTT, and then resuspended in 200 μL of the same buffer. The cells were lysed by sonication on ice (twice for 10 s separated by 30 s), using a Soniprep 150 (MSE) at 8 μm amplitude. The samples were centrifuged at 10 000×g for 10 min at 4 °C and the supernatant was collected, instantly frozen in liquid nitrogen, and stored at −80 °C. Oligomycin (2.0 μg mL^−1) was used as positive control. ATP levels were quantified using the contents of the kit following the manufacturer's instructions; 90 μL of standard reaction solution was added to each well of a 96‐well plate and the background luminescence was recorded in a FLUOstar OPTIMA fluorimeter; 10 μL of each sample was then added to each well. The plate was incubated at 28 °C for 15 min and the luminescence was measured, including a standard curve with an ATP concentration ranging from 1 nM to 1 μM to allow the calculation of the ATP concentrations in each sample. The ATP content was measured at 0, 0.5, 1, 2, 4, 8 and 12 h of incubation with test sample.

[5] = test system: T. b. brucei 427WT trypomastigotes; assay: Growth curve / time-to-kill determination; format: cell-based, Trypanosoma brucei brucei; conditions: 1× EC50; over 48 h
Experimental: To determine whether 18–22 inhibited growth or cell division rather than causing cell death of T. b. brucei, cell growth curves were performed by treating 427WT trypomastigotes with concentrations corresponding to 0.5×, 1×, and 2× the EC50 value, using untreated cells as a control. Incubation with test compounds at half the EC50 (Figure 3 A) caused mostly some delayed growth phenotype, with rates increasing after 10 or 20 h. […] At double the concentration (Figure 3 C), all the hybrids cleared the culture between the 4 h and 8 h time points, with the cell populations rapidly declining between 2 and 4 h.
Untreated parasites, used as control, were grown in parallel. The cells were counted by using hemocytometer cell counter (cell count/mL×10^4) at 0, 2, 4, 8, 12, 24, 28, 32, 36, 48 h of incubation. Each experiment was performed as two independent replicates, and each sample was counted at least twice.

SMILES | EC50 in ISMR1 relative to 427WT tested in parallel (T. b. brucei ISMR1) | EC50 (T. congolense IL3000 WT) [µM] | ultrastructure by TEM in trypanosomes [1] | EC50 [2] [µM] | RF, resistance factor relative to WT (aqp2/aqp3-KO) [2] | EC50 at 54 h [3] [µM] | ATP content, % of untreated [ATP] [4] | effect on cell growth [5]
COc1cccc2c1C(=O)C=C(Oc1cccc(CCCCCCCCO)c1)C2=O [Compound 20, 2‐(3‐(8‐Hydroxyoctyl)phenoxy)‐5‐methoxynaphthalene‐1,4‐dione] | did not show a significant increase in the EC50 values | 18.8 ± 0.2 | some mitochondria presented an irregular shape | 6.2 ± 0.58 | 1.2 | > 200 | approximately 50% | decreased the growth rate substantially, with a nearly trypanostatic effect over the first 12 h
O=C1C(Oc2cccc(CCCCCCCCO)c2)=CC(=O)c2c(O)cccc21 [Compound 22, 5‐Hydroxy‐2‐(3‐(8‐hydroxyoctyl)phenoxy)naphthalene‐1,4‐dione] | did not show a significant increase in the EC50 values | 43.4 ± 0.2 | mitochondrial damage but no other ultrastructural changes | 7.3 ± 0.5 | 0.96 | > 200 | approximately 50% | killed only a proportion of the cell population before stabilizing

From publication PMC6686156, “Discovery of Sustainable Drugs for Neglected Tropical Diseases: Cashew Nut Shell Liquid (CNSL)‐Based Hybrids Target Mitochondrial Function and ATP Production in Trypanosoma brucei” (Chemmedchem, 2019)
